# From US11413278B2, “Compounds and methods for promoting stress resistance” (priority 2015, dated 2022)
# “Also recorded” adds a separate entry of the source. Where two headings read alike, the source gives them in different places.
# Columns and labels:
# [1] = test system: HTB-178 lung tumor cells (EGFR+, PIK3CA+, RB1−, TP53−); test: Killing effects on HTB-178 tumor cells; type: cell-based, human; details: Assay 1(y); at 10 uM, 1st
# WI-38 cells [2] = test: CdCl2 (cadmium) resistance assay; type: cell-based, human; details: YES/NO; for Assay 2: Cadmium-resistant: * indicates partial
# Experimental: (§1) For many stress conditions tested previously, one significant correlation to longevity is the cellular resistance to H2O2 or CdCl2. Applicants then tested these small molecules, at five different final concentrations (0.25 μM to 20 μM), for cadmium and MMS resistance in WI-38 cells.
# (§2) The setups on 384-well plates and incubation times were the same as for H2O2 until the time of incubation with the stressors, which was 12 hours for both cadmium and MMS assays. Applicants tested several conditions, including conditions used to assay fibroblasts from long-lived animals (Salmon et al., 2005). These conditions produced better results with the positive controls (KEAP1 and AKT1 siRNAs) in the MMS assay. Thus, for MMS, the cells were shifted from growth media—OptiMEM+10% FBS, to DMEM (Gibco)+2% BSA (no serum) just before adding small molecules, which occurred 24 hours before MMS addition.
# (§3) Isolated small molecules were tested for MMS and cadmium resistance twice in two independent assays. Each small molecule was analyzed at five different concentrations (0.25 μM to 20 μM final concentration), with technical triplicates for each dose. Data were analyzed using a global variance t-test.
# human PARP1 = target: T1, human PARP1 (Homo sapiens, UniProt P09874); test: PARP inhibitor assay (HT Fluorescent Homogeneous PARP Inhibition Assay Kit); type: biochemical; details: 10 μM, in vitro
# T1 construct: purchased Trevigen
# Experimental: (§4) The assay was performed with the HT Fluorescent Homogeneous PARP Inhibition Assay Kit (Trevigen), following manufacturer's instructions. Briefly, nicotinamide adenine dinucleotide, human PARP1 and activated-DNA solution was added onto a 96-well plate. 54 repurchased small molecules, at 10 μM final concentration, were introduced onto the 96-well assay plate and incubated in a humid chamber at room temperature for 30 min in dark. Cycling mixture, with resazurin and cycling enzyme diaphorase, was then added and incubated further for 1 hr in dark. Reaction was terminated by adding the stopping buffer.
# as §4, with “(Trevegen),” for “(Trevigen),”, “stopped” for “terminated”
# [3] = test system: human dermal fibroblast (HDF) primary cells; test: H2O2-resistance in primary human dermal fibroblasts; type: cell-based; details: YES/NO
# C. elegans = C. elegans lifespan assays (liquid and plate); type: in vivo, Caenorhabditis elegans; details: Caenorhabditis elegans, at 66 uM
# WI-38 cells [4] = details: for Assay 1: H2O2-resistant: YES/NO, if NO, possibly due to repeated freezing/thawing of stocks; for EC50: read-out: Est. ED50, dose response 0.6-20 μM, H2O2-resistance
# WI-38 cells [5] = test: MMS resistance assay; type: cell-based, human; details: YES/NO
# Experimental: as §1, §2, §3
# NRF2 [6] = test: in vitro; type: cell-based, human; details: 10 uM; YES/NO
# Experimental: For qPCR analysis, WI-38 cells were treated with small molecules (at 10 μM) (biological quadruplicates) for 24 hrs and processed for RNA isolation and reverse transcription (RT) with the Cells-to-Ct Kit (Life Technologies), following manufacturer's instructions. RT products were diluted with H2O and used for qPCR analysis on an ABI 7300 system (Life Technologies) (technical triplicates). Relative expression levels of target genes were normalized to the genes B2M, PPIA and GAPDH. To knock down the expression of FOXO3 or NRF2, WI-38 cells were transfected, using the RNAiMAX reagents (Life Technologies), with siRNA oligos (at 10 nM final concentration, 10 ml culture medium) for FOXO3 (Life Technologies) or NRF2 (Integrated DNA Technologies) on 10-cm petri dishes for 36 hrs, and then detached and aliquoted onto 96-well (for qPCR analysis) or 384-well plates (for H2O2-stress treatment). ˜24 hrs later, small molecules were introduced and incubated with cells for 24 hrs. Cells were then either processed with the Cells-to-Ct Kit to prepare RT products for qPCR analysis or subjected to H2O2 (700 μM) for 3 hrs and assayed for viability. The knockdown efficiency of FOXO3 or NRF2 was checked at 36 hrs post-transfection and at the end as well.
# For qPCR analysis, WI-38 cells were treated with small molecules (at 10 μM) (biological quadruplicate) for 24 hrs and processed for RNA isolation and reverse transcription (RT) with the Cells-to-Ct Kit (Life Technologies), following manufacturer's instructions. RT products were diluted with H2O and used for qPCR analysis on a LightCycler 480 system (Roche) (technical triplicates). Relative expression levels of target genes were normalized to the genes B2M, PPIA and GAPDH. To knock down the expression of FOXO3 or NRF2, WI-38 cells were transfected with siRNA oligos (at 10 nM final concentration) for FOXO3 (Life Technologies) or NRF2 on 10-cm petri dish for 36 hrs, and then detached and aliquoted onto 96-well plates. ˜24 hrs later, small molecules were introduced and incubated with cells for 24 hrs. Cells were then processed with the Cells-to-Ct Kit to prepare RT products for qPCR analysis. The knockdown efficiency of FOXO3 or NRF2 was checked at 36 hrs post-transfection and at the end as well.
# Of these, O15 and O20 consistently (in 3 of 3 experiments) required NRF2 to promote H2O2-resistance, and their resistance capacities were reduced by ˜90% on average upon NRF2 knockdown under conditions tested.
# FOXO3 = test: qPCR analysis of FOXO3-regulated genes; type: cell-based, human; details: Homo sapiens, 24 h; Assay 10(m); at 10 uM, qPCR; read-out: Induction of FOXO3-regulated genes: SOD2 normalized fold-change
# Method in brief: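 FOXO3 target-gene expression quantified by qPCR normalised to B2M, PPIA and GAPDH, in WI-38 cells after 24 h exposure to 10 μM compound. Some runs used cells first transfected 36 h with 10 nM FOXO3 or NRF2 siRNA and replated ~24 h before dosing.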
# NRF2 [7] = test: qPCR analysis of NRF2-regulated genes; type: cell-based, human; details: Homo sapiens, 24 h; Assay 12(o); at 10 uM, qPCR; read-out: Induction of NRF2-regulated genes: GSTM1 normalized fold-change
# Method in brief: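 Expression of HMOX1, NQO1, GCLC and GSTM1 measured by qPCR relative to B2M, PPIA and GAPDH. Cells were WI-38 fibroblasts exposed 24 hrs to 10 μM compound, with RNA and cDNA prepared via Cells-to-Ct. Where stated, cells were first transfected 36 hrs with FOXO3 or NRF2 siRNA at 10 nM.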
# [8] = Assay 2(z), 1.0 × 10^9 bacteria/ml, wild type + FuDR (2012 July), read-out: Lifespan assay in liquid
# [9] = Assay 3(aa), 2.5 × 10^9 bacteria/ml, wild type + FuDR, read-out: Lifespan assay in liquid
# [10] = Assay 4(ab), 2.0 × 10^10 bacteria/ml, CF512 worms, no FuDR, read-out: Lifespan assay on plates
# T1 sequence (P09874 whole entry): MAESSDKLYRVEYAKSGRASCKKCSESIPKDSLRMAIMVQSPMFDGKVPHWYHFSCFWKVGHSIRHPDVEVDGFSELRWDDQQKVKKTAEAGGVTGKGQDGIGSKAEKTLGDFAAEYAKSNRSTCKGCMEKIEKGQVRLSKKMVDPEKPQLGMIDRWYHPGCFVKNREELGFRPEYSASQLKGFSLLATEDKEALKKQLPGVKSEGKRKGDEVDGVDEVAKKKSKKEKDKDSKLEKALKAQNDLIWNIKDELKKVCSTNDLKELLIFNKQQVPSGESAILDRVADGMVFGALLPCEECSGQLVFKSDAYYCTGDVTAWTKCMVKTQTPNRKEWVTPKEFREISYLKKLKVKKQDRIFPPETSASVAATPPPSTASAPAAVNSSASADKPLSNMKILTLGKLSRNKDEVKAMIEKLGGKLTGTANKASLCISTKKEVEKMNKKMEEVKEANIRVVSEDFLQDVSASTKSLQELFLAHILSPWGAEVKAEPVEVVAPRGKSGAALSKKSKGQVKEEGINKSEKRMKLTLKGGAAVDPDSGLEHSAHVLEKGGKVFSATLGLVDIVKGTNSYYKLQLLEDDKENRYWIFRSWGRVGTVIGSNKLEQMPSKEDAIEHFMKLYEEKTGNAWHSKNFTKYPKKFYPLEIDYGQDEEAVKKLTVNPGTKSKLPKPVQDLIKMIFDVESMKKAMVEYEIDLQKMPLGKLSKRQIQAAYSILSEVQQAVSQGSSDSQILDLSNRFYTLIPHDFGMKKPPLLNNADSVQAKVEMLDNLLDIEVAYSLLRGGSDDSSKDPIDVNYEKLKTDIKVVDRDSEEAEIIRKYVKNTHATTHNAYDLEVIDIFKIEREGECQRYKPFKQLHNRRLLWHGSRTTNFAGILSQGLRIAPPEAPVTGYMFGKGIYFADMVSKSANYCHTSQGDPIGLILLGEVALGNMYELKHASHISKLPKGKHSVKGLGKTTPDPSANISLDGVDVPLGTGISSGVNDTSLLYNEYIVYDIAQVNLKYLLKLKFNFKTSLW
Structure (SMILES),"Potential killing effects on HTB-178 tumor cells, 1st [1]",Assay 4: H2O2- & Cd-resistant (WI-38 cells [2]),Assay 2: Cadmium-resistant (WI-38 cells [2]),Inhibition of PARP1 (human PARP1),"Assay 6: H2O2-resistant, at 10 uM, human dermal fibroblast (HDF) primary cells [3]",ILS at 66 µM (C. elegans; [8]) [%],ILS at 66 µM (C. elegans; [9]) [%],ILS at 66 µM (C. elegans; [10]) [%],Assay 1: H2O2-resistant (WI-38 cells [4]),EC50 (WI-38 cells [4]) [µM],Assay 3: MMS-resistant (WI-38 cells [5]; * indicates partial),"Assay 5: Triple resistant (WI-38 cells [5]; H2O2, cadmium and MMS)",Assay 17: NRF2-dependency for H2O2-resistance (NRF2 [6]),fold induction at 10 µM (FOXO3),fold induction at 10 µM (NRF2 [7])
Oc1nnc(Cc2ccncc2)c2ccccc12 [Gr-2B],YES;,YES,YES,inhibitors of PARP1; also recorded: PARP inhibitors,YES,2.5,-1.1,14.1,YES,3.05,YES,YES,–,–,–
CC(COc1ccc2c(c1)OCO2)NC(=O)Cc1nnc(O)c2ccccc12 (stereo not shown) [Gr-2E],YES;,YES,YES,PARP inhibitors,YES,3.3,4,9.7,YES,3.82,–,–,YES,–,–
O=C(CCCc1nnc2n3nc(-c4ccccc4)nc3c3ccccc3n12)N1CCOCC1 [O8],YES;,–,–,–,YES,6.6,3.8,10,–,20,–,–,–,1.07,0.82
